The values below are quoted from earlier work in patent publication US20100172986A1, “CONTROLLED RELEASE COMPOSITION AND PREPARATION THEREOF” (LOTUS PHARMACEUTICAL CO., LTD., priority 2006, published 2010).

For the data set the following is noted: in adults.

As to `CCCC(CCC)C(=O)O` [valproic acid, 2-Propylpentanoic acid], the elimination half-life entry was “six and seventeen”.
